The record followed here is patent US20130252930A1 (BIOMARIN PHARMACEUTICAL INC., priority 2010, published 2013).

pIC50: −log10 of the molar value. Like-named read-outs stand apart in the source and are kept apart here.

Data set [1] addresses T1, Cyp21 enzyme (Human HEK 293-Cyp21 stable transfected cells) (Homo sapiens, UniProt P08686).
T1 construct: expressed in transfected cells
T1 sequence (P08686 1-495): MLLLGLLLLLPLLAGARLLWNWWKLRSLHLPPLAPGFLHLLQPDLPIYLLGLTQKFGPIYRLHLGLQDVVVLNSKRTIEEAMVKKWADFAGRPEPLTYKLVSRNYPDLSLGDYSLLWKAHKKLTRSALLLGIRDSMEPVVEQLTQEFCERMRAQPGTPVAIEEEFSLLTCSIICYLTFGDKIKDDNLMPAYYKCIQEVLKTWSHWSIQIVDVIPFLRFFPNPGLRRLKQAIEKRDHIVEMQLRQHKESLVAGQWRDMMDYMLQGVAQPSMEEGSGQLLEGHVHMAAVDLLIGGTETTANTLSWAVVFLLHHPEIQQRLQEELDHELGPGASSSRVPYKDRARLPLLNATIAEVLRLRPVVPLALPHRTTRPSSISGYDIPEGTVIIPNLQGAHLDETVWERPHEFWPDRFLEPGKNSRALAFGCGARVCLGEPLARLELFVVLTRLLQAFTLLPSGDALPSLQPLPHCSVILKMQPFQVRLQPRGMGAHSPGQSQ
The data set can be described thus: CYP21-HEK293 enzymatic assay (IC50) (Biological Example 11). The class given is cell-based. To be noted: HEK 293-Cyp21 cells.

The target in data set [2] is T2, CYP17 (human testicular microsome) (Homo sapiens, UniProt P05093).
T2 construct: using microsomal fraction from human testis (Celsis Cat #S00110) as the enzyme source; tissue Celsis S00110; host or cells: human testis microsomal fraction
T2 sequence (P05093 1-508): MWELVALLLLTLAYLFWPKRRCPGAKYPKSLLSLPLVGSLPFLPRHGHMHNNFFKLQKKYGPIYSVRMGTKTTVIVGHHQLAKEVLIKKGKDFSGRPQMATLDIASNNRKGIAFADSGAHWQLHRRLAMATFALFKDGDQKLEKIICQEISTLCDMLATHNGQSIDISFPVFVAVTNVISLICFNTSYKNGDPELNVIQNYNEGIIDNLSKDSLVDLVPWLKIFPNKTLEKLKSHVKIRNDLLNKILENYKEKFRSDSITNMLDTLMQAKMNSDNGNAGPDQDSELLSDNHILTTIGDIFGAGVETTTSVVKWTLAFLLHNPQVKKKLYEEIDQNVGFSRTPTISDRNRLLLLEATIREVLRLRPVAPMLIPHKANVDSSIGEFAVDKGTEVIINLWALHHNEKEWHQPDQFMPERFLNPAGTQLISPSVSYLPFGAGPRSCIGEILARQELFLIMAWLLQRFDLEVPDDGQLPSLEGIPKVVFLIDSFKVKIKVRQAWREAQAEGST
The data set can be described thus: CYP17 enzymatic assay (IC50) (Biological Example 4). To be noted: human testicular microsome. The class given is biochemical.
Description: The assays were performed in 96-well plates. Typical assays were carried out in total 100 μL volume that included test compounds at designated concentrations, 1× reaction buffer, 0.5 mM NADPH, 1 μM 17α-hydroxypregnenolone, and 2.5 μL of diluted human testicular microsome (Celsis. Cat #S00110). Reaction without test compound served as positive control. Reactions were allowed to incubate at 37° C. for 90 minutes with gentle shaking. The reaction was stopped by directly applying the enzymatic reaction mixture to ELISA plate for evaluation of DHEA concentration according to manufacturer's protocol (IBL America). A standard curve (OD450 vs. DHEA concentration) was generated using purified DHEA.

Data set [3] can be described thus: Human liver microsome stability assay (Biological Example 8b). To be noted: liver microsomes, pH 7.4.
Description: The reaction was started with addition of excess NADPH (5 mg/mL, 15 μL in 0.1 M potassium phosphate buffer, 1.0 mM EDTA, pH 7.4), the total volume is 45 μL (compound final concentration was 1 μM). […] 50 μL of the supernatant was transferred from each well into a 96-well sample plate containing 50 μL of ultra-pure water (Millipore) for LC-MS/MS analysis.
Data set [4] addresses T2, CYP17 (human testicular microsome). The data set can be described thus: CYP17 enzymatic assay (% inhibition at 1 nM) (Biological Example 12). The class given is biochemical. To be noted: compound at 1 nM.
A further data set has as its target T3, CYP17 (H295R cells) (Homo sapiens, UniProt P05093).
T3 construct: endogenous in cells; host or cells: H295R cells
T3 sequence (P05093 1-508): T2 sequence (P05093 1-508)
In words: CYP17 cellular assay (IC50), testosterone in H295R cells (Biological Example 7). The format is cell-based. How it is done:
The assays were performed in 96-well plates. Typically H295R cells were seeded at 4.5×10^4 cells/well in 100 μL Growth Medium containing DMEM/F-12 (Gibco/Invitrogen; 11330-032), 2.5% Nu-Serum (BD Bioscience; 355100) and ITS (BD Bioscience; 354352), and cultured at 37° C., 5% CO2 for 24 hr. The next day, media were carefully removed and cells were washed twice with 200 μL 1×HBSS++. Test compounds were then added to the cells at 100, 10, 1, 0.1 nM final concentrations in 125 μL volume per well in serum-free media containing DMEM/F-12 and ITS+ Premix (BD Bioscience; 354352) with 0.1% methanol. Serum-free media with 0.1% methanol without test compound was used as control. Cells were incubated with compounds at 37° C. for additional 24 hours, and the cultured media from each compound treated well was harvested for measurement of testosterone concentration by ELISA according to manufacturer's instruction (Assay Design). Testosterone concentration of each sample was plotted vs. the concentration of the test compounds.

Data set [5] has as its target T2, CYP17 (human testicular microsome). The data set can be described thus: CYP17 enzymatic assay (% inhibition at 10 nM), version 1 (Biological Example 5). The settings on record: 10 nM compound, DHEA by ELISA, read-out: Biological Example No. 5: CYP17 percent inhibition at 10 nM (version 1). The class given is biochemical.
The mark [6] stands for this setting: read-out: Biological Example No. 11: CYP21-HEK293 enzymatic assay IC50.
Where [7] appears, read: read-out: Biological Example No. 4: CYP17 enzymatic assay IC50.
Setting [8] is: read-out: Biological Example No. 12: CYP17 enzymatic assay % inhibition at 1 nM.
The mark [9] stands for this setting: H295R cells, testosterone, read-out: Biological Example No. 7: CYP17 cellular assay IC50.
Where [10] appears, read: read-out: CYP21-HEK293 enzymatic assay IC50 (Biological Example No. 11).
[11] abbreviates: read-out: CYP17 enzymatic assay IC50 (Biological Example No. 4).
The mark [12] stands for this setting: read-out: CYP17 enzymatic assay % inhibition at 1 nM (Biological Example No. 12).
[13] abbreviates: H295R cells, testosterone, read-out: CYP17 cellular assay IC50 (Biological Example No. 7).

In general, pIC50 refers to −log10 of the IC50, conventionally taken in molar units. The term half-life denotes the time needed for the level to fall by half in the phase considered. A lower half-life goes with rapid decline. Usually inhibition stands for the relative decrease from the control value, in per cent. In the case of `C[C@]12CCNC(=O)C=C1C1(CC1)CC1C2CC[C@]2(C)C(c3cccnc3)=CCC12` (stereo partly drawn) [Compound 369, (5aR,7aS)-5a,7a-dimethyl-8-(pyridin-3-yl)-3,4,5,5a,5b,6,7,7a,10,10a,10b,11-dodecahydro-2H-spiro[cyclopenta[5,6]naphtho[1,2-d]azepine-12,1′-cyclopropan]-2-one], the negative-log IC50 (pIC50) in data set [1] (setting [6]) was more than 8.00; in data set [2] (setting [7]), more than 7.96; at CYP17 (H295R cells) (setting [9]), more than 7.82. The half-life at 1 μM in data set [3] fell in the range of 1 to 50 min. In addition, the inhibition at 0.001 µM in data set [4] (setting [8]) was 10 to 50%.

For `CC1CC2C(CC[C@]3(C)C(c4cccnc4)=CCC23)[C@@]2(C)CCNC(=O)C=C12` (stereo partly drawn) [Compound 368, (5aR,7aS)-5a,7a,12-trimethyl-8-(pyridin-3-yl)-3,4,5,5a,5b,6,7,7a,10,10a,11,12-dodecahydrocyclopenta[5,6]naphtho[1,2-d]azepin-2(10bH)-one], the negative logarithm of the IC50 (pIC50) was more than 8.00 in data set [1] (setting [6]), more than 7.96 in data set [2] (setting [7]) and more than 7.82 at CYP17 (H295R cells) (setting [9]). This molecule also showed a half-life at 1 μM in data set [3] of 1 to 50 min. Besides, the inhibition at 0.001 µM in data set [4] (setting [8]) is more than 50%.

Turning to `C=C1C[C@@H]2[C@H](CC[C@]3(C)C(c4cncc(F)c4)=CC[C@@H]23)[C@@]2(C)C=CC(=O)C=C12` [Compound 320, (10R,13S)-17-(5-fluoropyridin-3-yl)-10,13-dimethyl-6-methylene-6,7,8,9,10,11,12,13,14,15-decahydro-3H-cyclopenta[a]phenanthren-3-one], the pIC50 in data set [1] (setting [6]) is less than 7.00; in data set [2] (setting [7]), more than 7.96; at CYP17 (H295R cells) (setting [9]), more than 7.82. Also, in data set [3], the half-life at 1 μM lay in the range of 1 to 50 min.

For `C[C@]12CC[C@H]3[C@@H](CCC4=CC(=O)CC[C@@]43C)C1=CC=C2c1cncc(F)c1` [Compound 352, (10R,13S)-17-(5-fluoropyridin-3-yl)-10,13-dimethyl-6,7,8,9,10,11,12,13-octahydro-1H-cyclopenta[a]phenanthren-3(2H)-one], the figures for the negative logarithm of the IC50 (pIC50) (in data set [1] (setting [6]); in data set [2] (setting [7]); at CYP17 (H295R cells) (setting [9])) were 7.00 to 8.00, more than 7.96 and more than 7.82, respectively. This molecule returned a half-life at 1 μM in data set [3] of 1 to 50 min. Moreover, the inhibition at 0.001 µM in data set [4] (setting [8]) was more than 50%.

As for `C=C1C[C@@H]2[C@H](CC[C@]3(C)C(c4cccnc4)=CC[C@@H]23)[C@@]2(C)CCC(=O)C=C12` [Compound 312, (10R,13S)-10,13-dimethyl-6-methylene-17-(pyridin-3-yl)-6,7,8,9,10,11,12,13,14,15-decahydro-1H-cyclopenta[a]phenanthren-3(2H)-one], the negative logarithm of the IC50 (pIC50) in data set [1] (setting [10]) was 7.00 to 8.00; in data set [2] (setting [11]) it was more than 7.96; on CYP17 (H295R cells) (setting [13]), more than 7.82. In data set [3], this molecule came in with a half-life at 1 μM of 1 to 50 min. The inhibition at 0.001 µM in data set [4] (setting [12]) was more than 50%.

As to `C[C@]12CCNC(=O)C=C1C1CC1[C@@H]1[C@@H]2CC[C@]2(C)C(c3cncc(F)c3)=CC[C@@H]12` (stereo partly drawn) [Compound 388, (5aR,7aS)-8-(5-fluoropyridin-3-yl)-5a,7a-dimethyl-3,4,5,5a,5b,6,7,7a,10,10a,10b,10c,11,11a-tetradecahydro-2H-cyclopenta[5,6]cyclopropa[3,4]naphtho[1,2-d]azepin-2-one], the values for the negative-log IC50 (pIC50) (in data set [1] (setting [6]); in data set [2] (setting [7]); at CYP17 (H295R cells) (setting [9])) were less than 6.00, more than 7.96 and more than 7.82, respectively. In data set [3], this molecule showed a half-life at 1 μM of 1 to 50 min. For the same molecule, the inhibition at 0.001 µM in data set [4] (setting [8]) was more than 50%.

`COc1cncc(C2=CC=C3[C@@H]4CC=C5C[C@@H](O)CC[C@]5(C)[C@H]4CC[C@]23C)c1` [Compound 81, (3S,10R,13S)-17-(5-methoxypyridin-3-yl)-10,13-dimethyl-2,3,4,7,8,9,10,11,12,13-decahydro-1H-cyclopenta[a]phenanthren-3-ol]: the negative-log IC50 (pIC50) in data set [2] (DHEA by ELISA, read-out: Biological Example No. 4: CYP17 enzymatic assay IC50) is more than 7.96; on CYP17 (H295R cells) (H295R cells, testosterone by ELISA, 24 hours, read-out: Biological Example No. 7: CYP17 cellular assay IC50), more than 7.82. Moreover, the half-life at 1 μM in data set [3] is more than 50 min. For the same molecule, in data set [5], the inhibition at 0.01 µM is more than 80%.

For `C=C1C[C@@H]2[C@H](CC[C@]3(C)C(c4cccnc4)=CC[C@@H]23)[C@@]2(C)C=CC(=O)C=C12` [Compound 311, (10R,13S)-10,13-dimethyl-6-methylene-17-(pyridin-3-yl)-6,7,8,9,10,11,12,13,14,15-decahydro-3H-cyclopenta[a]phenanthren-3-one], the negative-log IC50 (pIC50) is more than 8.00 in data set [1] (setting [10]), more than 7.96 in data set [2] (setting [11]) and more than 7.82 on CYP17 (H295R cells) (setting [13]). Besides, the half-life at 1 μM in data set [3] lay within 1 to 50 min. The inhibition at 0.001 µM in data set [4] (setting [12]) is more than 50%.

For `CC1CC2C3=CC=C(c4cncc(F)c4)[C@@]3(C)CCC2[C@@]2(C)CCC(=O)C=C12` (stereo partly drawn) [Compound 327, (10R,13S)-17-(5-fluoropyridin-3-yl)-6,10,13-trimethyl-6,7,8,9,10,11,12,13-octahydro-1H-cyclopenta[a]phenanthren-3(2H)-one], the results for the negative-log IC50 (pIC50) (in data set [1] (setting [6]); on CYP17 (H295R cells)) were more than 8.00 and more than 7.82, respectively. Moreover, the half-life at 1 μM in data set [3] was in the range of 1 to 50 min. Besides, the inhibition at 0.001 µM in data set [4] (setting [8]) is 10 to 50%.

For the molecule `CC1=C2CC[C@@H]3[C@H](CC[C@]4(C)C(c5cccnc5)=CC[C@@H]34)[C@@]2(C)CCC1=O` [Compound 300, (10R,13S)-4,10,13-trimethyl-17-(pyridin-3-yl)-6,7,8,9,10,11,12,13,14,15-decahydro-1H-cyclopenta[a]phenanthren-3(2H)-one], the pIC50 in data set [1] (setting [6]) is less than 6.00; in data set [2] (setting [7]) it was more than 7.96; at CYP17 (H295R cells) (setting [9]), more than 7.82. For the same molecule, in data set [4] (setting [8]), the inhibition at 0.001 µM is more than 50%.

For `CC1C[C@@H]2[C@H](CC[C@]3(C)C(c4cccnc4)=CC[C@@H]23)[C@@]2(C)C=CC(=O)C=C12` (stereo partly drawn) [Compound 318, (10R,13S)-6,10,13-trimethyl-17-(pyridin-3-yl)-6,7,8,9,10,11,12,13,14,15-decahydro-3H-cyclopenta[a]phenanthren-3-one], the pIC50 in data set [1] (setting [6]) is more than 8.00; on CYP17 (H295R cells) (setting [9]) it was more than 7.82. For the same molecule, the half-life at 1 μM in data set [3] fell in the range of 1 to 50 min. The inhibition at 0.001 µM in data set [4] (setting [8]) was more than 50%.

As for `CC1CC2C(CC[C@]3(C)C(c4cncc(F)c4)=CCC23)[C@@]2(C)CCC(=O)C=C12` (stereo partly drawn) [Compound 342, (10R,13S)-17-(5-fluoropyridin-3-yl)-6,10,13-trimethyl-6,7,8,9,10,11,12,13,14,15-decahydro-1H-cyclopenta[a]phenanthren-3(2H)-one], the negative logarithm of the IC50 (pIC50) is less than 7.00 in data set [1] (setting [6]), more than 7.96 in data set [2] (setting [7]) and more than 7.82 at CYP17 (H295R cells) (setting [9]). Further, in data set [4] (setting [8]), the inhibition at 0.001 µM is more than 50%.
